Assay results taken from patent US20190292155A1, “THERAPEUTIC INHIBITORY COMPOUNDS” (LifeSci Pharmaceuticals, Inc., priority 2016, published 2019).

These compounds were tested against T1, human complement factor D (Homo sapiens, UniProt P00746) (assay: In vitro enzyme inhibition of human complement factor D (Z-Lys-SBzl/DTNB, A405)). Conditions: not given.
T1 construct: purchased R&D Systems 1824-SE
Type: biochemical
Procedure, shortened: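 Buffer 50 mM Tris/HCl pH 7.5, 1 M NaCl, 0.5% final DMSO; compounds pre-incubated with enzyme 5 min at room temperature, then Z-Lys-SBzl with DTNB added (each diluted to 200 μM before addition).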

T1 sequence (P00746 26-253): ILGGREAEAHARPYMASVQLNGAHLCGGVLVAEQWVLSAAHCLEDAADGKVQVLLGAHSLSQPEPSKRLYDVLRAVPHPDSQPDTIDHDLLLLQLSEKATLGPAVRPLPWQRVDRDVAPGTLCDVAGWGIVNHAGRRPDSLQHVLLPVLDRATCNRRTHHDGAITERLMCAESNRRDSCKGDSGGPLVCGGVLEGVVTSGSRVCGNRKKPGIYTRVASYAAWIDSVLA

SMILES	IC50 [µM]
NC(=O)c1ccc2c(C(N)=O)nn(CC(=O)N(CC(=O)NCc3cccc(Cl)c3F)C3CC3)c2c1 [Example 100, 1-(2-((2-((3-chloro-2-fluorobenzyl)amino)-2-oxoethyl)(cyclopropyl)amino)-2-oxoethyl)-1H-indazole-3,6-dicarboxamide]	< 0.1

Same assay, conditions: biochemical assay, substrate Z-Lys-SBzl; read-out: CFD IC50

SMILES	IC50 [µM]
NC(=O)c1nn(CC(=O)N(CC(=O)NCc2ccc(CO)c(Cl)c2F)C2CC2)c2ccccc12 [Example 99, 1-(2-((2-((3-chloro-2-fluoro-4-(hydroxymethyl)benzyl)amino)-2-oxoethyl)(cyclopropyl)amino)-2-oxoethyl)-1H-indazole-3-carboxamide]	> 10
NCc1cc(Cl)c(F)c(CNC(=O)CN(C(=O)Cn2nc(C(N)=O)c3ccccc32)C2CC2)c1 [Example 101, 1-(2-((2-((5-(aminomethyl)-3-chloro-2-fluorobenzyl)amino)-2-oxoethyl)(cyclopropyl)amino)-2-oxoethyl)-1H-indazole-3-carboxamide]	1 to 10
NC(=O)c1nn(CC(=O)N(CC(=O)NCc2cc(Cl)c3cn[nH]c3c2)C2CC2)c2ccccc12 [Example 102, 1-(2-((2-(((4-chloro-1H-indazol-6-yl)methyl)amino)-2-oxoethyl)(cyclopropyl)amino)-2-oxoethyl)-1H-indazole-3-carboxamide]	1 to 10
NC(=O)c1nn(CC(=O)N(CC(=O)NCc2cc(F)cc(Cl)c2)C2CC2)c2ccccc12 [Example 103, 1-(2-((2-((3-chloro-5-fluorobenzyl)amino)-2-oxoethyl)(cyclopropyl)amino)-2-oxoethyl)-1H-indazole-3-carboxamide]	0.1 to 1
NC(=O)c1nn(CC(=O)N(CC(=O)NCc2ccc(Cl)c(Cl)c2)C2CC2)c2ccccc12 [Example 104, 1-(2-(cyclopropyl(2-((3,4-dichlorobenzyl)amino)-2-oxoethyl)amino)-2-oxoethyl)-1H-indazole-3-carboxamide]	1 to 10
N#Cc1cccc2c(C(N)=O)nn(CC(=O)N(CC(=O)NCc3cccc(Cl)c3F)C3CC3)c12 [Example 105, 1-(2-((2-((3-chloro-2-fluorobenzyl)amino)-2-oxoethyl)(cyclopropyl)amino)-2-oxoethyl)-7-cyano-1H-indazole-3-carboxamide]	1 to 10
NC(=O)c1nn(CC(=O)N(CC(=O)NCc2cccc(Cl)c2Cl)C2CC2)c2ccccc12 [Example 106, 1-(2-(cyclopropyl(2-((2,3-dichlorobenzyl)amino)-2-oxoethyl)amino)-2-oxoethyl)-1H-indazole-3-carboxamide]	0.1 to 1
NC(=O)c1nn(CC(=O)N(CC(=O)NCc2cccc(Cl)n2)C2CC2)c2ccccc12 [Example 107, 1-(2-((2-(((6-chloropyridin-2-yl)methyl)amino)-2-oxoethyl)(cyclopropyl)amino)-2-oxoethyl)-1H-indazole-3-carboxamide]	1 to 10
NC(=O)c1nn(CC(=O)N(CC(=O)NCc2ccc(F)c(Cl)c2)C2CC2)c2ccccc12 [Example 108, 1-(2-((2-((3-chloro-4-fluorobenzyl)amino)-2-oxoethyl)(cyclopropyl)amino)-2-oxoethyl)-1H-indazole-3-carboxamide]	1 to 10
NC(=O)c1nn(CC(=O)N(CC(=O)NCc2cc(Cl)cc3cn[nH]c23)C2CC2)c2ccccc12 [Example 109, 1-(2-((2-(((5-chloro-1H-indazol-7-yl)methyl)amino)-2-oxoethyl)(cyclopropyl)amino)-2-oxoethyl)-1H-indazole-3-carboxamide]	1 to 10
NC(=O)c1nn(CC(=O)N(CC(=O)NCc2cc(Cl)cc3ccoc23)C2CC2)c2ccccc12 [Example 110, 1-(2-((2-(((5-chlorobenzofuran-7-yl)methyl)amino)-2-oxoethyl)(cyclopropyl)amino)-2-oxoethyl)-1H-indazole-3-carboxamide]	0.1 to 1
NC(=O)c1nn(CC(=O)N(CC(=O)NCc2cccc(Cl)c2F)C2CC2)c2c(C(F)(F)F)cccc12 [Example 111, 1-(2-((2-((3-chloro-2-fluorobenzyl)amino)-2-oxoethyl)(cyclopropyl)amino)-2-oxoethyl)-7-(trifluoromethyl)-1H-indazole-3-carboxamide]	< 0.1
NC(=O)c1nn(CC(=O)N(CC(=O)NCc2cccc(Cl)c2)C2CC2)c2ccccc12 [Example 112, 1-(2-((2-((3-chlorobenzyl)amino)-2-oxoethyl)(cyclopropyl)amino)-2-oxoethyl)-1H-indazole-3-carboxamide]	0.1 to 1
Cc1ccc(CNC(=O)CN(C(=O)Cn2nc(C(N)=O)c3ccccc32)C2CC2)cc1Cl [Example 113, 1-(2-((2-((3-chloro-4-methylbenzyl)amino)-2-oxoethyl)(cyclopropyl)amino)-2-oxoethyl)-1H-indazole-3-carboxamide]	1 to 10
NC(=O)c1nn(CC(=O)N(CC(=O)NCc2cc(Cl)c3[nH]ncc3c2)C2CC2)c2ccccc12 [Example 114, 1-(2-((2-(((7-chloro-1H-indazol-5-yl)methyl)amino)-2-oxoethyl)(cyclopropyl)amino)-2-oxoethyl)-1H-indazole-3-carboxamide]	1 to 10
NC(=O)c1nn(CC(=O)N(CC(=O)NCc2ccccc2F)C2CC2)c2ccccc12 [Example 115, 1-(2-(cyclopropyl(2-((2-fluorobenzyl)amino)-2-oxoethyl)amino)-2-oxoethyl)-1H-indazole-3-carboxamide]	1 to 10
COc1c(Cl)cccc1CNC(=O)CN(C(=O)Cn1nc(C(N)=O)c2ccccc21)C1CC1 [Example 116, 1-(2-((2-((3-chloro-2-methoxybenzyl)amino)-2-oxoethyl)(cyclopropyl)amino)-2-oxoethyl)-1H-indazole-3-carboxamide]	1 to 10
NC(=O)c1ccc(CNC(=O)CN(C(=O)Cn2nc(C(N)=O)c3ccccc32)C2CC2)c(F)c1 [Example 117, 1-(2-((2-((4-carbamoyl-2-fluorobenzyl)amino)-2-oxoethyl)(cyclopropyl)amino)-2-oxoethyl)-1H-indazole-3-carboxamide]	1 to 10
NC(=O)c1nn(CC(=O)N(CC(=O)NCc2cccc(N)c2F)C2CC2)c2ccccc12 [Example 118, 1-(2-((2-((3-amino-2-fluorobenzyl)amino)-2-oxoethyl)(cyclopropyl)amino)-2-oxoethyl)-1H-indazole-3-carboxamide]	1 to 10

Further lines, results first:

IC50 [µM]	SMILES
0.1 to 1	NC(=O)c1nn(CC(=O)N(CC(=O)NCc2cc(Cl)cc(Cl)c2)C2CC2)c2ccccc12 [Example 119, 1-(2-(cyclopropyl(2-((3,5-dichlorobenzyl)amino)-2-oxoethyl)amino)-2-oxoethyl)-1H-indazole-3-carboxamide]
< 0.1	NC(=O)c1nn(CC(=O)N(CC(=O)NCc2cccc(Br)c2F)C2CC2)c2ccccc12 [Example 120, 1-(2-((2-((3-bromo-2-fluorobenzyl)amino)-2-oxoethyl)(cyclopropyl)amino)-2-oxoethyl)-1H-indazole-3-carboxamide]
1 to 10	NC(=O)c1nn(CC(=O)N(CC(=O)NCc2ccc(N)cc2F)C2CC2)c2ccccc12 [Example 121, 1-(2-((2-((4-amino-2-fluorobenzyl)amino)-2-oxoethyl)(cyclopropyl)amino)-2-oxoethyl)-1H-indazole-3-carboxamide]
1 to 10	COc1cccc(CNC(=O)CN(C(=O)Cn2nc(C(N)=O)c3ccccc32)C2CC2)c1F [Example 122, 1-(2-(cyclopropyl(2-((2-fluoro-3-methoxybenzyl)amino)-2-oxoethyl)amino)-2-oxoethyl)-1H-indazole-3-carboxamide]
1 to 10	N#Cc1cccc(CNC(=O)CN(C(=O)Cn2nc(C(N)=O)c3ccccc32)C2CC2)c1F [Example 123, 1-(2-((2-((3-cyano-2-fluorobenzyl)amino)-2-oxoethyl)(cyclopropyl)amino)-2-oxoethyl)-1H-indazole-3-carboxamide]
1 to 10	NC(=O)c1nn(CC(=O)N(CC(=O)NCc2cc(Cl)cc(C(F)(F)F)c2)C2CC2)c2ccccc12 [Example 124, 1-(2-((2-((3-chloro-5-(trifluoromethyl)benzyl)amino)-2-oxoethyl)(cyclopropyl)amino)-2-oxoethyl)-1H-indazole-3-carboxamide]
1 to 10	COc1ccc(CNC(=O)CN(C(=O)Cn2nc(C(N)=O)c3ccccc32)C2CC2)cc1Cl [Example 125, 1-(2-((2-((3-chloro-4-methoxybenzyl)amino)-2-oxoethyl)(cyclopropyl)amino)-2-oxoethyl)-1H-indazole-3-carboxamide]
> 10	NC(=O)c1nn(CC(=O)N(CC(=O)NCc2cccc(CO)c2F)C2CC2)c2ccccc12 [Example 126, 1-(2-(cyclopropyl(2-((2-fluoro-3-(hydroxymethyl)benzyl)amino)-2-oxoethyl)amino)-2-oxoethyl)-1H-indazole-3-carboxamide]
1 to 10	NC(=O)c1nn(CC(=O)N(CC(=O)NCc2cccc(C3CC3)c2F)C2CC2)c2ccccc12 [Example 127, 1-(2-(cyclopropyl(2-((3-cyclopropyl-2-fluorobenzyl)amino)-2-oxoethyl)amino)-2-oxoethyl)-1H-indazole-3-carboxamide]
0.1 to 1	Cc1cccc(CNC(=O)CN(C(=O)Cn2nc(C(N)=O)c3ccccc32)C2CC2)c1F [Example 128, 1-(2-(cyclopropyl(2-((2-fluoro-3-methylbenzyl)amino)-2-oxoethyl)amino)-2-oxoethyl)-1H-indazole-3-carboxamide]
1 to 10	Cc1cc(Cl)cc(CNC(=O)CN(C(=O)Cn2nc(C(N)=O)c3ccccc32)C2CC2)c1 [Example 129, 1-(2-((2-((3-chloro-5-methylbenzyl)amino)-2-oxoethyl)(cyclopropyl)amino)-2-oxoethyl)-1H-indazole-3-carboxamide]
1 to 10	NC(=O)c1nn(CC(=O)N(CC(=O)NCc2cncc(Cl)c2)C2CC2)c2ccccc12 [Example 130, 1-(2-((2-(((5-chloropyridin-3-yl)methyl)amino)-2-oxoethyl)(cyclopropyl)amino)-2-oxoethyl)-1H-indazole-3-carboxamide]
